Measured values: patent US8129396B2, “2-[1H-benzimidazol-2(3H)-ylidene]-2-(pyrimidin-2-yl)acetamides and 2-[benzothiazol-2(3H)-ylidene]-2-(pyrimidin-2-yl)acetamides as kinase inhibitors” (Telik, Inc., priority 2008, dated 2012)

How the values were obtained:
[1] = tested on: p-H3 in HCT116 cells; experiment: Histone phosphorylation (p-H3) assay; type: cell-based; settings: Homo sapiens, HCT-116; HCT116 cells, 4 hr incubation; read-out: p-H3 IC50
Text: (§1) The cell lines HL60 (human promyelocytic leukemia) and HCT116 (human colon carcinoma) were obtained from the American Type Culture Collection, Manassas, Va., U.S.A., and HUVEC-2 (human umbilical vein endothelial cells) from BD Biosciences, Bedford, Mass., U.S.A. Aurora A kinase was obtained from Upstate Biotech, Billerica, Mass., U.S.A.; Aurora B kinase from BPS Bioscience, San Diego, Calif., U.S.A.; and VEGFR2 kinase from Cell Signaling Technology, Danvers, Mass., U.S.A. The IMAP FP Screening Express kit was obtained from Molecular Devices, Sunnyvale, Calif., U.S.A.; the CellTiter-Glo assay kit from Promega Corporation, Madison, Wis., U.S.A.; and the Cellular DNA Cytometric Analysis Reagent Kit and BrdU labeling and detection kit from Roche Diagnostics Corporation, Indianapolis, Ind., U.S.A. All products were used in accordance with manufacturer's directions. Kinase inhibition assays and the histone phosphorylation (p-H3) assay were conducted in duplicate, and the cytotoxicity and HUVEC proliferation assays were conducted in triplicate, in each case with solvent control.
Log phase HCT116 cells were seeded at 2.5×10^4 cells/well in a 96-well plate and allowed to attach overnight. The test compounds were diluted in DMSO (8 concentrations with serial 3-fold dilutions) and added to the cells (0.5% DMSO final concentration), and the cells incubated for 4 hr. The cells were then washed three times with cold phosphate-buffered saline (PBS), and lysis buffer was added. After 30 min shaking at 4° C. and centrifugation, the supernatants were transferred to a nitrocellulose membrane by a “dot-blot” apparatus. After washing the wells, the membrane was processed for Western blot. Detection of p-H3 and β-actin was performed on the same membrane with primary rabbit anti-p-H3 and mouse anti-β-actin antibodies followed by secondary goat anti-rabbit IRDye800 and goat anti-mouse AlexaFluor 680 antibodies. The membranes were scanned on an Odyssey scanner.

[2] = target: T1, VEGFR2 kinase (Homo sapiens, UniProt P35968); experiment: VEGFR2 kinase assay; type: biochemical; settings: 6 μM ATP, 1 mM MnCl2; rounded to 1 significant figure
T1 construct: purchased Cell Signaling Technology
T1 sequence (P35968 20-1356): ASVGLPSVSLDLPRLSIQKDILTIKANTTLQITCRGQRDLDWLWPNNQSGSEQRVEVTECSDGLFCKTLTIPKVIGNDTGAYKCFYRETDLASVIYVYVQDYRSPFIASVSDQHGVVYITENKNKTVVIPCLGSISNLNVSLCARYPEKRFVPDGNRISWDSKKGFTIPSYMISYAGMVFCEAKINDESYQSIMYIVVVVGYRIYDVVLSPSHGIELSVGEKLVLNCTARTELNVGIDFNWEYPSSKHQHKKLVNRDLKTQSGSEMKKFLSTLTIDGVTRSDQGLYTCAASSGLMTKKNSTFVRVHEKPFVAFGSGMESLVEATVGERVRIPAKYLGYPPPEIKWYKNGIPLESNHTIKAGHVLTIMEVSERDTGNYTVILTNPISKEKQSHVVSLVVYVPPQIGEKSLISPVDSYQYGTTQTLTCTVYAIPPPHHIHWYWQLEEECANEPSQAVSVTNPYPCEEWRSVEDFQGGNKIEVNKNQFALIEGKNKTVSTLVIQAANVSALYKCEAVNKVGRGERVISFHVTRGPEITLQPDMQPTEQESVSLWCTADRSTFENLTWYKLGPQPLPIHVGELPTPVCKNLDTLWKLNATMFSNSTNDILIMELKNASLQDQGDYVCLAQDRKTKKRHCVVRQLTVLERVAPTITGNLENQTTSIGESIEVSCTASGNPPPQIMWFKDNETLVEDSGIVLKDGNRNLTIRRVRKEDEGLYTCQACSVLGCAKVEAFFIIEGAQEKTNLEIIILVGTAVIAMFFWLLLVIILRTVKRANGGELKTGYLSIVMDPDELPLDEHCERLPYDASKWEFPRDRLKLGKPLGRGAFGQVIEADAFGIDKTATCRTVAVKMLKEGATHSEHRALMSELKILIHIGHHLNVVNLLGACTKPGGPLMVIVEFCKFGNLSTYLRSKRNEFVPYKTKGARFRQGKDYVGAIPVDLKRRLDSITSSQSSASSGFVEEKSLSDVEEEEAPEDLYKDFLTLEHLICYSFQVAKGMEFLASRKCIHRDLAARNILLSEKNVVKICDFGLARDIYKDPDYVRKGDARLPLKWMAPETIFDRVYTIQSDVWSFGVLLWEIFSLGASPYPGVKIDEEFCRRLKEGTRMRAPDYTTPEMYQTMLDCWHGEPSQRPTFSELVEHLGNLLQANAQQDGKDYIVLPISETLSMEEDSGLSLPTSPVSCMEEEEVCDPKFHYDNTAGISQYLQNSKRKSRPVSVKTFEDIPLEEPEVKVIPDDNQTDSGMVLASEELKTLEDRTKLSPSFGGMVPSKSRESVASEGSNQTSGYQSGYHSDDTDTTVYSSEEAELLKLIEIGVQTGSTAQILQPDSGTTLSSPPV
Text: as §1
This assay was performed as for the Aurora A kinase assay, using VEGFR2 kinase, CSKtide as the substrate with 6 μM ATP and 1 mM MnCl2, a kinase reaction time of 1 hr, and dilution of the binding reagent 1:1200 in binding buffer A/binding buffer B (1:1).

[3] = target: T2, Aurora A kinase (Homo sapiens, UniProt O14965); experiment: Aurora A kinase assay (IMAP fluorescence polarization); type: biochemical; settings: 10 μM ATP; rounded to 1 significant figure; read-out: Aur-A IC50
T2 construct: purchased Upstate Biotech
T2 sequence (O14965 1-403): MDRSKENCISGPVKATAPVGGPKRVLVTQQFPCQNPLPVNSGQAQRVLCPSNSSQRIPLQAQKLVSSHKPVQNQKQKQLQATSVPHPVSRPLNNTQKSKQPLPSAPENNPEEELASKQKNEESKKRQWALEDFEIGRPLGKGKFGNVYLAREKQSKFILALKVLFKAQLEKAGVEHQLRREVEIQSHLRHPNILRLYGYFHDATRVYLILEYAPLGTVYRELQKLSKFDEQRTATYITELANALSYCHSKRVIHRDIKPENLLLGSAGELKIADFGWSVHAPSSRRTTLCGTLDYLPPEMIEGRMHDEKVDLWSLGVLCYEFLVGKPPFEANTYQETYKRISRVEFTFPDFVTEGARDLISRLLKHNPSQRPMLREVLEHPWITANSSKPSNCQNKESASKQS
Text: as §1
Aurora A kinase assay: the test compounds were diluted in dimethylsulfoxide (DMSO, eight concentrations with serial 3-fold dilutions) and incubated (final DMSO concentration 2.5%) with Aurora A kinase at room temperature for 5 min in kinase reaction buffer with 1 mM dithiothreitol (IMAP FP Screening Express). The kinase reaction was initiated by adding 100 nM fluorescein labeled PKAtide and 10 μM adenosine triphosphate (ATP), and allowed to continue for 45 min at room temperature, after which it was stopped by adding binding reagent (1:400 dilution in binding buffer A). After 30 min of room temperature incubation with shaking, the fluorescence polarization was measured on a LJL plate reader. Aurora B kinase assay: performed as for the Aurora A kinase assay, but using Aurora B kinase instead of Aurora A kinase.

[4] = target: T3, Aurora B kinase (Homo sapiens, UniProt Q96GD4); experiment: Aurora B kinase assay (IMAP fluorescence polarization); type: biochemical; settings: 10 μM ATP; rounded to 1 significant figure; read-out: Aur-B IC50
T3 construct: purchased BPS Bioscience
T3 sequence (Q96GD4 whole entry): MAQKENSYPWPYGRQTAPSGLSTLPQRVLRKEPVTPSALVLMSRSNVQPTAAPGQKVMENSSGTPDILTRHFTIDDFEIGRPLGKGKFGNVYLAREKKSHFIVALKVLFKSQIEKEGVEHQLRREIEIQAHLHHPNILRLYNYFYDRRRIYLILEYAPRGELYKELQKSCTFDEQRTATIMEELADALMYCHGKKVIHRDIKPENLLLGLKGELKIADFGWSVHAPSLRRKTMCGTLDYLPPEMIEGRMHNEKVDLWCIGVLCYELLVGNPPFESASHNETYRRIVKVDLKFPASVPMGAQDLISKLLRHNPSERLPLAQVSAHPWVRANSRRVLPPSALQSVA
Text: as §1
The kinase reaction was initiated by adding 100 nM fluorescein labeled PKAtide and 10 μM adenosine triphosphate (ATP), and allowed to continue for 45 min at room temperature, after which it was stopped by adding binding reagent (1:400 dilution in binding buffer A). After 30 min of room temperature incubation with shaking, the fluorescence polarization was measured on a LJL plate reader. Aurora B kinase assay: performed as for the Aurora A kinase assay, but using Aurora B kinase instead of Aurora A kinase.

[5] = tested on: HCT116 (human colon carcinoma) cells; experiment: HCT116 cytotoxicity assay (CellTiter-Glo); type: cell-based; settings: HCT-116, 72 h, cytotoxicity, three days culture, read-out: HCT116 IC50
Text: as §1
Log-phase cells were trypsinized, collected by centrifugation, and resuspended in a small volume of fresh medium, and the density of viable cells was determined following Trypan Blue staining. Cells were diluted in fresh media (1×10^4 cells/mL for HL60 and 4×10^4 cells/mL for HCT116 cells), the test compounds (concentrations between 0.1 μM and 200 μM, dissolved in DMSO, 50 μL) added immediately after dilution to achieve a final DMSO concentration of 0.5%, then the suspensions added at 150 μL/well to 96-well plates, and incubated overnight to allow attachment in the case of adherent cells. The cells were cultured for three days (about three doubling times). The cells were then collected by centrifugation, and 100 μL of the culture supernatant was replaced by the CellTiter-Glo reagent. After incubation for 15 minutes at room temperature, the plate was read with a luminometer.

[6] = tested on: HUVEC-2 (human umbilical vein endothelial cells); experiment: HUVEC VEGF-dependent proliferation assay (BrdU); type: cell-based; settings: VEGF (25 ng/mL)-dependent proliferation, read-out: HUVEC IC50
Text: as §1
HUVEC-2 cells were seeded at 10^4 cells/well in a 96-well plate coated with 0.1% gelatin in complete medium. […] The compounds were serially diluted in DMSO, and added to the cells at 0.5% DMSO final concentration. After 2 hr, VEGF (25 ng/mL) was added; and after a further day, 5-bromo-2-deoxyuridine (BrdU, 10 μM) was added to label proliferating cells, and the cells incubated for another day. The plates were then processed using the Roche BrdU labeling and detection kit, and the VEGF-dependent antiproliferative activity of the compounds determined.

IC50 [1] | IC50 [2] | IC50 [3] | IC50 [4] | SMILES | IC50 [5] | IC50 [6]
90 nM | 50 nM | 10 nM | 4 nM | NC(=O)/C(=C1\Nc2ccc(NC(=O)[C@@H]3CCCN3)cc2N1)c1nccc(C(F)(F)F)n1 [Compound 80A] | 500 nM | 100 nM
400 nM | 10 nM | 8 nM | 7 nM | CN1CCCCC1C(=O)Nc1ccc2c(c1)N/C(=C(/C(N)=O)c1nccc(C(F)(F)F)n1)N2 (stereo not drawn) [Compound 82A] | 80 nM | 30 nM
200 nM | 60 nM | 6 nM | 10 nM | CN1CCN(CCC(=O)Nc2ccc3c(c2)N/C(=C(/C(N)=O)c2nccc(C(F)(F)F)n2)N3)CC1 [Compound 83A] | 200 nM | 200 nM
100 nM | 10 nM | 2 nM | 20 nM | NC(=O)/C(=C1\Nc2ccc(CN3CCOCC3)cc2S1)c1nccc(C(F)(F)F)n1 [Compound 91A] | 300 nM | 40 nM
500 nM | 400 nM | 70 nM | 30 nM | COc1ccnc(/C(C(N)=O)=C2/Nc3ccc(CN4CCOCC4)cc3S2)n1 [Compound 92A] | 5000 nM | 60 nM
100 nM | 10 nM | 20 nM | 20 nM | CN1CCN(Cc2ccc3c(c2)S/C(=C(/C(N)=O)c2nccc(C(F)(F)F)n2)N3)CC1 [Compound 93A] | 300 nM | 30 nM
900 nM | 30 nM | 3 nM | 20 nM | Cn1ccnc1-c1ccc2c(c1)S/C(=C(/C(N)=O)c1nccc(C(F)(F)F)n1)N2 [Compound 106A] | 2000 nM | 80 nM
400 nM | 100 nM | 20 nM | 9 nM | NC(=O)/C(=C1\Nc2ccc(OCCN3CCOCC3)cc2S1)c1nccc(C(F)(F)F)n1 [Compound 111A] | 2000 nM | 300 nM
900 nM | 200 nM | 20 nM | 20 nM | NC(=O)/C(=C1\Nc2cc(OCCN3CCOCC3)ccc2S1)c1nccc(C(F)(F)F)n1 [Compound 112A] | 2000 nM | 200 nM
400 nM | 40 nM | 30 nM | 20 nM | NC(=O)/C(=C1\Nc2ccc(OCCCN3CCOCC3)cc2S1)c1nccc(C(F)(F)F)n1 [Compound 113A] | 600 nM | 200 nM
50 nM | 40 nM | 40 nM | 20 nM | CN1CCN(CCOc2ccc3c(c2)S/C(=C(/C(N)=O)c2nccc(C(F)(F)F)n2)N3)CC1 [Compound 114A] | 600 nM | 40 nM
200 nM | 20 nM | 40 nM | 30 nM | CN1CCN(CCCOc2ccc3c(c2)S/C(=C(/C(N)=O)c2nccc(C(F)(F)F)n2)N3)CC1 [Compound 115A] | 100 nM | 100 nM
80 nM | 9 nM | 40 nM | 8 nM | CN(C)CCOc1ccc2c(c1)S/C(=C(/C(N)=O)c1nccc(C(F)(F)F)n1)N2 [Compound 116A] | 400 nM | 100 nM
200 nM | 6 nM | 9 nM | 6 nM | CN1CCN(c2ccc3c(c2)N/C(=C(/C(N)=O)c2nccc(C(F)(F)F)n2)N3)CC1 [Compound 119A] | 1000 nM | 200 nM
500 nM | 2 nM | 30 nM | 9 nM | CN1CCN(c2ccc3c(c2)S/C(=C(/C(N)=O)c2nccc(C(F)(F)F)n2)N3)CC1 [Compound 120A] | 2000 nM | 2000 nM
90 nM | 20 nM | 30 nM | 8 nM | NC(=O)/C(=C1\Nc2ccc(N3CCC(N4CCCCC4)CC3)cc2S1)c1nccc(C(F)(F)F)n1 [Compound 121A] | 1000 nM | 900 nM
400 nM | 20 nM | 20 nM | 9 nM | NC(=O)/C(=C1\Nc2ccc(N3CCC(N4CCOCC4)CC3)cc2S1)c1nccc(C(F)(F)F)n1 [Compound 122A] | 4000 nM | 7000 nM
200 nM | 20 nM | 30 nM | 10 nM | CN(CCN1CCCCC1)c1ccc2c(c1)S/C(=C(/C(N)=O)c1nccc(C(F)(F)F)n1)N2 [Compound 125A] | 3000 nM | 600 nM
2000 nM | 70 nM | 20 nM | 20 nM | CN1CCN(S(=O)(=O)c2ccc3c(c2)S/C(=C(/C(N)=O)c2nccc(C(F)(F)F)n2)N3)CC1 [Compound 126A] | 2000 nM | 30 nM
600 nM | 60 nM | 10 nM | 20 nM | NC(=O)/C(=C1\Nc2ccc(S(=O)(=O)NCCN3CCOCC3)cc2S1)c1nccc(C(F)(F)F)n1 [Compound 128A] | 900 nM | 60 nM
1000 nM | 100 nM | 30 nM | 10 nM | NC(=O)/C(=C1\Nc2ccc(S(=O)(=O)N3CCNCC3)cc2S1)c1nccc(C(F)(F)F)n1 [Compound 129A] | 1000 nM | 300 nM
900 nM | 200 nM | 90 nM | 60 nM | NC(=O)/C(=C1\Nc2ccccc2S1)c1ncc(C(=O)NCCCN2CCOCC2)c(C(F)(F)F)n1 [Compound 131A] | 2000 nM | 800 nM
